Results: patent US10927115B2, “Substituted heterocycles for targeting Hsp90” (Duke University, priority 2012, dated 2021)

Assays:
[1] = test system: MCF10 (benign) cells; test: Probe detection of Hsp90 in cells ± membrane permeabilization with Triton X 100; format: cell-based; details: MCF10, non-permeabilized; FIG. 5B
Protocol: (§1) In another experiment, MCF7 (metastatic) and MCF10 (benign) cells were treated with an Hsp90 antibody±membrane permeabilization with Triton X 100. […] After permeabilization the antibody recognizes intracellular Hsp90. […] The experiment was also performed using fluorescein compound 10. […] In FIGS. 5A-5B the green staining from compound 10 fluorescence appears white, while blue from the DAPI-stained nuclei appears gray.

[2] = test system: MCF7 (metastatic) cells; test: as above; format: cell-based; details: FIG. 5B
Protocol: as §1

[3] = test system: MDA-MB-468 tumor-bearing mice; test: Biodistribution of compound 10 in mouse xenografts by flow cytometry; format: in vivo, NOD/SCID mice; details: 1 mg/mouse intraperitoneally, 2, 24, 48 or 72 hours
Protocol: MDA-MB-468 cells (5M cells/mouse) were injected to the flank of NOD/SCID mice. When tumors reached 5-10 mm in diameter, tumor-bearing mice were intraperitoneally injected with compound 10 (1 mg/mouse, in 100 μL of DMSO). After 2, 24, 48 or 72 hours, mice were sacrificed and tumors, livers and spleens were harvested. Tumors and livers were digested with collagenase/hyarulonidase/DNase for 1 hour at 37° C., and ficolled to eliminate debris and dead cells, and then washed. Cells in tumor digest were labeled with anti-mouse CD45-biotin+anti-H2-kD-biotin for 15 min on ice, and then 15 min with streptavidin-APC. Tumor cells were analyzed by flow cytometry to detect fluorescence from compound 10. Mouse lineage negative cells were gated for the analysis. Spleen were minced and passed through the strainer. Splenocytes, liver cells and tumor cells were analyzed by flow cytometry to detect fluorescence from compound 10.
Spleen were minced and passed through a strainer to get rid of aggregations/membranous tissue. Cells were stained with violet viability dye. Viable cells were analyzed for their compound 10 uptake.
Liver tissues were minced with blades and digested with triple enzyme buffer (collagenase III, hyarulonidase, DNAse) for 1 h at 37° C., and cells were passed through a strainer to get rid of aggregations. Cells were stained with violet viability dye. Viable cells were analyzed for their compound 10 uptake.
Tumor tissues were minced with blades and digested with triple enzyme buffer (collagenase III, hyarulonidase, DNAse) for 1 h at 37° C., and cells were passed through a strainer to get rid of aggregations. Cells were stained with anti-mouse CD45-biotin/anti-H2-kd-biotin and then streptavidin-APC and violet viability dye. Viable and CD45/H2-kd negative cells were analyzed for their compound 10 uptake.

[4] = test system: MCF cells; test: Heat treatment of cells, compound 10 uptake, micro anion-exchange chromatography of extracts; format: cell-based; details: 10 μM, FIG. 13B
Protocol: MCF cells were heated to 42° C. or maintained at 37° C. for 60 minutes. Compound 10 was added (10 μM) and after 60 minutes the cells harvested. Extracts were prepared and separated by micro anion-exchange chromatography. Column fractions were analyzed for the presence of compound 10.

**Q.** For `Cc1nn(-c2ccc(C(N)=O)c(NCCCOCCOCCOCCOCCOCCCNC(=S)Nc3ccc4c(c3)C(=O)OC43c4ccc(O)cc4Oc4cc(O)ccc43)c2)c2c1C(=O)CC(C)(C)C2` [Compound 10, 2-((1-((3′,6′-dihydroxy-3-oxo-3H-spiro[isobenzofuran-1,9′-xanthen]-5-yl)amino)-1-thioxo-6,9,12,15,18-pentaoxa-2-azahenicosan-21-yl)amino)-4-(3,6,6-trimethyl-4-oxo-4,5,6,7-tetrahydro-1H-indazol-1-yl)benzamide], which “probe entry and detection of Hsp90” value [1] is on record?
**A.** The value was “not in MCF10 cells”.

**Q.** And the “probe entry and detection of Hsp90” value ([2]; MCF7, non-permeabilized)?
**A.** Its value is “enters and detects Hsp90”.

**Q.** What about the “detection of intracellular Hsp90 following permeabilization” value ([2]; MCF7 compared with MCF10, Triton X 100) of the same compound?
**A.** Its value is “detects more intracellular Hsp90 in MCF7s”.

**Q.** And the accumulation in splenocytes ([3]; FIG. 10A)?
**A.** Its accumulation in splenocytes is “little accumulation”.

**Q.** What about the “accumulation in liver cells” value ([3]; FIG. 10B) of the same compound?
**A.** The value was “little accumulation”.

**Q.** And the “accumulation in tumor cells” value ([3]; FIG. 10C)?
**A.** Its value is “high degree of accumulation”.

**Q.** What about the “major peak of fluorescence of cell extract” value ([4]; 60 minutes) of the same compound?
**A.** The value was “correlates with elution of Hsp90”.

**Q.** And the “effect of heat treatment on uptake” value ([4]; 42° C. vs 37° C. for 60 minutes)?
**A.** Its value is “increased uptake”.
